Source: patent US20040248275A1, “Engineered bacterial aggregates” (priority 2003, published 2004)

B1: Lentil lectin (protein, UniProt P02870 31-210; P02870 218-269, looked up)
Lectin beta chain: TETTSFSITKFSPDQKNLIFQGDGYTTKGKLTLTKAVKSTVGRALYSTPIHIWDRDTGNVANFVTSFTFVIDAPSSYNVADEFTFFIAPVDTKPQTGGGYLGVFNSKEYDKTSQTVAVEFDTFYNAAWDPSNKERHIGIDVNSIKSVNTKSWNLQNGERANVVIAFNAATNVLTVTLTYP
Lectin alpha chain: VTSYTLNEVVPLKDVVPEWVRIGFSATTGAEFAAHEVHSWSFHSELGGTSSS

Assays:
Assay in all cases: Lectin aggregation of bacterial cells (microtitre wells, semi-quantitative score)
Format in all cases: cell-based
Design in all cases: key: Where the addition of lectins did not cause the aggregation of cells, a score of “0” was assigned; Lectins that caused cellular-aggregation to give small flocs in a turbid suspension were given a score of “+”; A score of “++” was given to lectin-cell aggregate mixes that resulted in large aggregates seen by eye in a turbid suspension; Lectins that caused cellular aggregation to give easily visible aggregates in a clear solution were given a score of “+++”
Details in all cases: cells O.D. 0.5 at 650 nm
A. hydrophila = system: A. hydrophila
Procedure: (§1) Assay approach: Six lectins were chosen to discover their suitability for the aggregation of different species of bacteria. These were Concanavalin A, Lentil lectin, Pseudomonas aeruginosa lectin, peanut lectin, Limulus polyphemus lectin and wheat germ lectin.
(§2) The ability of the lectins to aggregate bacterial cells was studied by mixing cells at an O.D. of 0.5 at 650 nm with different lectins at different concentrations. The extent of aggregation was determined by a semi-quantitative approach. […] Lectins that caused cellular-aggregation to give small flocs in a turbid suspension were given a score of “+”. […] Lectins that caused cellular aggregation to give easily visible aggregates in a clear solution were given a score of “+++”.

C. aquaticum = system: C. aquaticum
Procedure: as §1, §2

E. asburiae = system: E. asburiae
Procedure: as §1, §2

E. brevis = system: E. brevis
Procedure: as §1, §2

E. coli S17-1 (K12) = system: E. coli S17-1 (K12)
Procedure: as §1, §2

E. faecalis = system: E. faecalis
Procedure: as §1, §2

K. pneumoniae = system: K. pneumoniae
Procedure: as §1, §2

P. putida = system: P. putida
Procedure: as §1, §2

Pseudomonas sp. 2881 = system: Pseudomonas sp. 2881
Procedure: as §1, §2

S. haemolyticus = system: S. haemolyticus
Procedure: as §1, §2

S. paucimobilis = system: S. paucimobilis
Procedure: as §1, §2

| Molecule | extent of aggregation (score) (A. hydrophila; lectin 1 × 10^−1 mg/mL) | extent of aggregation (score) (A. hydrophila; lectin 1 × 10^−2 mg/mL) | extent of aggregation (score) (A. hydrophila; lectin 1 × 10^−3 mg/mL) | extent of aggregation (score) (C. aquaticum; lectin 1 × 10^−1 mg/mL) | extent of aggregation (score) (C. aquaticum; lectin 1 × 10^−2 mg/mL) | extent of aggregation (score) (C. aquaticum; lectin 1 × 10^−3 mg/mL) | extent of aggregation (score) (E. asburiae; lectin 1 × 10^−1 mg/mL) | extent of aggregation (score) (E. asburiae; lectin 1 × 10^−2 mg/mL) | extent of aggregation (score) (E. asburiae; lectin 1 × 10^−3 mg/mL) | extent of aggregation (score) (E. brevis; lectin 1 × 10^−1 mg/mL) | extent of aggregation (score) (E. brevis; lectin 1 × 10^−2 mg/mL) | extent of aggregation (score) (E. brevis; lectin 1 × 10^−3 mg/mL) | extent of aggregation (score) (E. coli S17-1 (K12); lectin 1 × 10^−1 mg/mL) | extent of aggregation (score) (E. coli S17-1 (K12); lectin 1 × 10^−2 mg/mL) | extent of aggregation (score) (E. coli S17-1 (K12); lectin 1 × 10^−3 mg/mL) | extent of aggregation (score) (E. faecalis; lectin 1 × 10^−1 mg/mL) | extent of aggregation (score) (E. faecalis; lectin 1 × 10^−2 mg/mL) | extent of aggregation (score) (E. faecalis; lectin 1 × 10^−3 mg/mL) | extent of aggregation (score) (K. pneumoniae; lectin 1 × 10^−1 mg/mL) | extent of aggregation (score) (K. pneumoniae; lectin 1 × 10^−2 mg/mL) | other results |
| --- | --- | --- | --- | --- | --- | --- | --- | --- | --- | --- | --- | --- | --- | --- | --- | --- | --- | --- | --- | --- | --- |
| Concanavalin A | +++ | ++ | ++ | ++ | ++ | 0 | + | + | 0 | + | + | 0 | +++ | +++ | + | 0 | + | ++ | +++ | + | extent of aggregation (score) (K. pneumoniae; lectin 1 × 10^−3 mg/mL): +; extent of aggregation (score) (P. putida; lectin 1 × 10^−1 mg/mL): +++; extent of aggregation (score) (P. putida; lectin 1 × 10^−2 mg/mL): ++; extent of aggregation (score) (P. putida; lectin 1 × 10^−3 mg/mL): +; extent of aggregation (score) (Pseudomonas sp. 2881; lectin 1 × 10^−1 mg/mL): +++; extent of aggregation (score) (Pseudomonas sp. 2881; lectin 1 × 10^−2 mg/mL): ++; extent of aggregation (score) (Pseudomonas sp. 2881; lectin 1 × 10^−3 mg/mL): ++; extent of aggregation (score) (S. haemolyticus; lectin 1 × 10^−1 mg/mL): +++; extent of aggregation (score) (S. haemolyticus; lectin 1 × 10^−2 mg/mL): ++; extent of aggregation (score) (S. haemolyticus; lectin 1 × 10^−3 mg/mL): +; extent of aggregation (score) (S. paucimobilis; lectin 1 × 10^−1 mg/mL): +; extent of aggregation (score) (S. paucimobilis; lectin 1 × 10^−2 mg/mL): ++; extent of aggregation (score) (S. paucimobilis; lectin 1 × 10^−3 mg/mL): 0 |
| B1 | +++ | ++ | ++ | ++ | + | 0 | 0 | 0 | 0 | + | 0 | 0 | +++ | ++ | + | + | + | ++ | ++ | + | extent of aggregation (score) (K. pneumoniae; lectin 1 × 10^−3 mg/mL): +; extent of aggregation (score) (P. putida; lectin 1 × 10^−1 mg/mL): +++; extent of aggregation (score) (P. putida; lectin 1 × 10^−2 mg/mL): ++; extent of aggregation (score) (P. putida; lectin 1 × 10^−3 mg/mL): +; extent of aggregation (score) (Pseudomonas sp. 2881; lectin 1 × 10^−1 mg/mL): +++; extent of aggregation (score) (Pseudomonas sp. 2881; lectin 1 × 10^−2 mg/mL): ++; extent of aggregation (score) (Pseudomonas sp. 2881; lectin 1 × 10^−3 mg/mL): +; extent of aggregation (score) (S. haemolyticus; lectin 1 × 10^−1 mg/mL): +++; extent of aggregation (score) (S. haemolyticus; lectin 1 × 10^−2 mg/mL): +; extent of aggregation (score) (S. haemolyticus; lectin 1 × 10^−3 mg/mL): +; extent of aggregation (score) (S. paucimobilis; lectin 1 × 10^−1 mg/mL): +; extent of aggregation (score) (S. paucimobilis; lectin 1 × 10^−2 mg/mL): 0; extent of aggregation (score) (S. paucimobilis; lectin 1 × 10^−3 mg/mL): 0 |
